# From patent US5476851A, “Pyrazolo[3,4-g]quinoxaline compounds which inhibit PDGF receptor protein tyrosine kinase” (Rhone-Poulenc Rorer Pharmaceuticals, Inc., priority 1994, dated 1995)
# Biological target: T1, PDGF-R (Mus musculus, UniProt P05622)
# T1 construct: endogenous in cells; host or cells: NIH 3T3 cells (lysate, immunoprecipitate)
# Assay: Inhibition of PDGF-R cell-free autophosphorylation
# Format: biochemical
# Conditions: lysate from NIH 3T3 cells, stimulated with 10 ng/ml PDGF, [γ-^32 P]ATP, 4° C., immunoprecipitation
# Description: In order to test the present compounds for inhibition, the following procedure using PDGF stimulation is used. "IC50," as used below refers to the concentration of inhibitor ([…]) at which the rate of autophosphorylation is halved, compared with media containing no inhibitor.
# Inhibition of PDGF-R Autophosphorylation
# Lysate from NIH 3T3 cells was diluted one-third in Triton-free buffer and stimulated with 10 ng/ml PDGF for 30 minutes at 4° C. The equivalent of 1/15 of a 175. cm^2 plate of lysate was used per sample. The stimulated lysate was then immunoprecipitated with rabbit polyclonal anti-PDGF-receptor antibodies raised against a synthetic peptide from the COOH-terminal region (amino acids 1094-1106) or the human PDGF-receptor β-subunit and added to increasing concentrations of test compound of the present invention. After 10 minutes at 4° C., 10 μCi of [γ-^32 P]ATP were added and further incubated for 10 minutes at 4° C. Samples were separated by SDS-PAGE on 6% gels.
# The following tables show examples of representative compounds of this invention and their test results as determined by the above inhibition of PDGF-R cell-free autophosphorylation procedure.
# T1 sequence (P05622 32-1098): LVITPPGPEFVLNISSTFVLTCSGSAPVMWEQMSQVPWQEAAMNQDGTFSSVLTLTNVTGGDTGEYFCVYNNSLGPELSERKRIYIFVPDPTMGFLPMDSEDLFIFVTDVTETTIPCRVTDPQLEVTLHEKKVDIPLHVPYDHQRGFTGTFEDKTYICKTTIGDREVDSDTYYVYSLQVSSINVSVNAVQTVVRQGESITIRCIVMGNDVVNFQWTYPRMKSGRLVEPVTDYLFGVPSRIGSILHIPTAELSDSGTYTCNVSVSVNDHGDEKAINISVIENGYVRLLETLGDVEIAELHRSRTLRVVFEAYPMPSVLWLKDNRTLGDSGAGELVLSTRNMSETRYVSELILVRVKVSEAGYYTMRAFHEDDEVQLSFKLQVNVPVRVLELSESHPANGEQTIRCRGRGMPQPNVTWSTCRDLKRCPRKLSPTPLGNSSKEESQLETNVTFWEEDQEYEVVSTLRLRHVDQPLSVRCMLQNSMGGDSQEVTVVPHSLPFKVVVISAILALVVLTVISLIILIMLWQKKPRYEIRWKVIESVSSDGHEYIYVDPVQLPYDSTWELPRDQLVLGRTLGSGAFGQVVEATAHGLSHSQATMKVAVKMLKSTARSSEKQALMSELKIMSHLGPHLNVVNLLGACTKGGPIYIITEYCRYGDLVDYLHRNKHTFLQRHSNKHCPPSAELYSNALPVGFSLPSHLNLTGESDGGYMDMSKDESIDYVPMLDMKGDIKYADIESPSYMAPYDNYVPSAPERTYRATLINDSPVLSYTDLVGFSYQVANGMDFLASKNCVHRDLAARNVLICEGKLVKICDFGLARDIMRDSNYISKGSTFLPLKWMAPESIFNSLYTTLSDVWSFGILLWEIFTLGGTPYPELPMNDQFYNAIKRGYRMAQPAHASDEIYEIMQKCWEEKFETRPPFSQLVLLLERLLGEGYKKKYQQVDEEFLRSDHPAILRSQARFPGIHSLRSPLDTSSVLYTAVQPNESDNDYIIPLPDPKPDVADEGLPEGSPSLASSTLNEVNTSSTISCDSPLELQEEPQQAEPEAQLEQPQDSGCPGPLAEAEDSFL
row,SMILES,IC50
1,Clc1ccc(-c2cnc3cc4cn[nH]c4cc3n2)s1,2000 to 10000 nM
2,Cn1cc2cc3ncc(-c4ccc(Cl)s4)nc3cc2n1,300 nM
3,COc1ccc(-c2cnc3cc4cn[nH]c4cc3n2)cc1F,< 20 nM
4,COc1ccc(-c2cnc3cc4cnn(C)c4cc3n2)cc1F,< 2000 nM
5,COc1ccc(-c2cnc3cc4cn(C)nc4cc3n2)cc1F,< 20 nM
